Test results as given in US7150974B1, “Parathyroid hormone receptor binding method” (The General Hospital Corporation, priority 1991, dated 2006).

Key:
[1] = biological target: T1, opossum kidney PTH/PTHrp receptor clone, OK-O (Didelphis virginiana, UniProt P25107, I132F/S86P); test: Radioreceptor assay, COS cells expressing OK-O; type: binding; conditions: FIG. 11
T1 construct: expressed in transfected cells; host or cells: COS cells, transient, plasmid OK-O (pcDNA I)
Description: [Nle^8,Nle^18,Tyr^34]bPTH-(1-34)amide (NlePTH), and [Tyr^36]PTHrP(1-36)amide(PTHrP) were iodinated with Na^125I (carrier free, New England Nuclear, Boston, Mass.) as previously reported (Segre et al., J. Biol. Chem. 254: 6980, 1979), and purified by reverse-phase HPLC. In brief, the labeled peptide was dissolved in 0.1% trifluoracetic acid (TFA), applied to a C18 Sep-pak cartridge (Waters Associates, Inc., Milford, Mass.) and eluted with a solution of 60% acetonitrile in 0.1% TFA. After lyophilization, the radioligand then was applied to C18-μBondapak column (3.9 mm×30 cm. Waters Associates) and eluted over 30 min with a linear gradient of 30-50% acetonitrile-0.1% TFA at a flow rate of 2 ml/min. The radioligand eluted in two peaks; the first peak, which eluted at approximately 38% acetonitrile, was used in these studies because it gave higher total and specific bindings. The specific activity was 500±75 mCi/mg, which corresponds to an average iodine-peptide ratio of 1.
COS-7 cells were grown in 15 cm plates in DMEM, 10% heat-inactivated […], 10 mg/L gentamycin until 80-90% confluent. Twenty-four hours after transfection by the DEAE/Dextran method (Sambrook et al., supra), with 1-2 μg of plasmid DNA, the cells were trypsinized and replated in multiwell plastic dishes (16 or 35 mm diameter, Costar, Cambridge, Mass.) at a cell concentration of 5×10^4 cells/cm^2). Cell number increased only slightly after transfection. After continuing culture for another 48 h, radiorecepter assays were performed. […]
Incubations were terminated by aspirating the buffer, and repeatedly (×3) washing the culture dishes, containing the adherent cells with chilled 0.9% NaCl solution, over a 15 sec period. Cell-bound radioactivity was recovered by the sequential addition (×3) of 1 N NaOH (200 μl) to each well. […] A second and third extraction with 1 N NaOH (200 μl) were combined with the first, and the total radioactivity was counted in a γ-spectrometer (Packard Instruments, Downers Grove, Ill.). […]

[2] = biological target: T2, human kidney PTH/PTHrP receptor (Homo sapiens, UniProt Q03431, L389Q); test: cAMP accumulation, COS-7 cells expressing human kidney receptor; type: cell-based; conditions: COS-7 cells expressing human receptor, FIG. 18
T2 construct: The full-length human kidney PTH/PTHrP receptor cDNA, HKrk, was constructed using the BamHI/PvuII fragment of PCR clone #2 and HK-2; expressed in transfected cells; host or cells: COS-7 cells, transient (DEAE/Dextran), pcDNAI
T2 sequence (Q03431 27-593 L389Q): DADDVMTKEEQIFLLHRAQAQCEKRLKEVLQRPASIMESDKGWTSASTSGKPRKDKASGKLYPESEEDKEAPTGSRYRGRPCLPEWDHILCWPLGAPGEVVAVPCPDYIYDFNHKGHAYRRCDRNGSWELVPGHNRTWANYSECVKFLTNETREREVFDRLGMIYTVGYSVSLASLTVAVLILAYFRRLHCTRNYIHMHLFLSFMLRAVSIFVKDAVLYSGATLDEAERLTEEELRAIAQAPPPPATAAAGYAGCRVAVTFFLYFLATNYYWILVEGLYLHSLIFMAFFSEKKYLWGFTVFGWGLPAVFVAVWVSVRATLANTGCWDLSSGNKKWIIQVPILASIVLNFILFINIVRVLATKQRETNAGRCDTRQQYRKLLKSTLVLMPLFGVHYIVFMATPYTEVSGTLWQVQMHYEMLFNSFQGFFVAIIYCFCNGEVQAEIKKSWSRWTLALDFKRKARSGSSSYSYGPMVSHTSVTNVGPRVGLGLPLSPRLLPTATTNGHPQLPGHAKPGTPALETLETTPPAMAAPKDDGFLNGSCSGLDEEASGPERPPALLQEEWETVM
Description: Intracellular cAMP accumulation was measured as described previously (Abou-Samra et al., J. Biol. Chem. 262:1129, 1986). Cells in 24-well plates were rinsed with culture medium containing 0.1% BSA and 2 mM IBMX. […] The supernatant was removed and the cells immediately frozen by placing the whole plate in dry ice powder. Intracellular cAMP was extracted by thawing the cells in 1 ml of 50 mM HCl and analyzed by a specific radioimmunoassay using an anti-cAMP antibody (e.g., Sigma, St. Louis, Mo.). A cAMP analog (2′-O-monosuccinyl-adenosine 3′:5′-cyclic monophosphate tyrosyl methyl ester, obtained from Sigma) which was used a tracer for cAMP was iodinated by the chloramine T method. Free iodine was removed by adsorbing the iodinated cAMP analog onto a C18 Sep-pak cartridge (Waters, Milford, Mass.). After washing with dH2O, the iodinated cAMP analog was eluted from the Sep-pak Cartridge with 40% acetonitrille (ACN) and 0.1% trifluoroacetic acid (TFA). The iodinated cAMP analog was lyophilized, reconstituted in 1 ml 0.1% TFA, and injected into a C18 reverse phase HPLC column (Waters). The column was equilibrated with 10% ACN in 0.1% TFA, and eluted with gradient of 10-30% ACN in 0.1% TFA. This allows separation of the mono-iodinated cAMP analog from the non-iodinated cAMP analog. […] The standard used for the assay, adenosine 3′:5′-cyclic monophosphate, was purchased from Sigma. […]

T1 sequence (P25107 27-585 S86P/I132F): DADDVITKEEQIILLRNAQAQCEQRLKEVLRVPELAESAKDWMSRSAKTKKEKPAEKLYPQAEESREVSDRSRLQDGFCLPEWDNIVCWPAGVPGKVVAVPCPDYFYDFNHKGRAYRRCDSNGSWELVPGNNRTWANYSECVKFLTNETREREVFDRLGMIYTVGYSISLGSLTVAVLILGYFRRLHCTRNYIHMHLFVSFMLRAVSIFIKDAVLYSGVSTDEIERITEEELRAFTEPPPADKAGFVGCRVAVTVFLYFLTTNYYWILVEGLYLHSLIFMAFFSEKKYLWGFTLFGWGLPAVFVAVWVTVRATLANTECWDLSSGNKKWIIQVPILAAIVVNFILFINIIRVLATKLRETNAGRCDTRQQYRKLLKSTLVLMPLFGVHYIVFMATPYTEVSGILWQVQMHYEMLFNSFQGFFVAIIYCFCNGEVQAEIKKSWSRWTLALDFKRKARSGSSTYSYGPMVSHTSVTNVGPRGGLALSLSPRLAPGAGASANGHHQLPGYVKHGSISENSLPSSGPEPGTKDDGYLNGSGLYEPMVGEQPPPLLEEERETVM

## [Nle^8,18, Tyr^34]bPTH(1-34)amide
[1]
  inhibition of 125I-PTHrP binding by competitor: inhibited
[2]
  cAMP accumulation, PTH(1-34) compared with PTHrP(1-36): to the same extent
